The values below come from patent US20030207843A1, “Treatment of drug-resistant human immunodeficiency virus infection” (priority 1999, published 2003).

Structures are written as SMILES. Read-outs that look alike come from different tables or passages of the source.

One experiment deals with HIV-1LAI S117T. Nature of the experiment: p24 reduction assay in MT-2 cells, S117T. The class given is cell-based. As for the experimental part: (§1) Cells. MT-2 cells (AIDS Research and Reference Reagent Program, National Institute of Allergy and Infectious Diseases, National Institutes of Health) were maintained in RPMI 1640 supplemented with 10% fetal bovine serum (FBS; JRH Biosciences, Lenexa, Kans.), 10 mM HEPES buffer, 50 IU/ml penicillin and 50 μg/ml streptomycin.
(§2) Antiviral Susceptibility Assays. The antiviral activity of each compound was determined by inoculating MT-2 cells with HIV-1LAI at a multiplicity of infection (MOI) of 0.01 TCID50/cell, followed by incubation in the presence of three-fold serial drug dilutions (3 wells per dilution) (see Mellors, et. al., Antimicrob. Agents Chemother. 39:1087-1092). Five or seven days after infection, culture supernatants were harvested, lysed with 0.5% triton-X 100 and assayed for p24 antigen concentration using a commercial ELISA assay (DuPont, NEN Products, Wilmington, Del.). The antiviral activity of the compounds is expressed as the IC50, which is the concentration required to inhibit 50% of p24 antigen production. The fold-resistance of a test virus is calculated by dividing the IC50 of the test virus by the IC50 of the HIV-1LAI control virus.
(§3) Generation of Mutant Recombinant HIV-1. HIV-1 containing the desired mutations were generated by oligonucleotide directed mutagenesis (Altered Sites II, Promega) as previously described (Mellors, et. al., Molecular Pharm. 41:446-451). After mutagenesis, mutant RT was subcloned into the pxxHIV-1LAI cloning vector using the silent XmaI and XbaI restriction sites located at the 5′ and 3′ ends of RT. Clones were DNA sequenced to verify the presence of the desired mutation(s) and electroporated into MT-2 cells as described above to generate infectious mutant recombinant HIV-1.
(§4) Mutant RT was generated via oligonucleotide-directed mutagenesis and ligated into the pXXHIV-1LAI cloning vector. Cloning was facilitated by the presence of two silent restriction sites at the 5′ and 3′ ends (Xma1 and Xba1, respectively) of pXXHIV-1LAI RT. Infectious mutant recombinant HIV-1 was generated by electroporating MT-2 cells with mutated pXXHIV-1LAI clones. The presence of the desired mutations was verified by DNA sequencing.
DNA sequencing identified two mutations in RT: S117T and L214F.
(§5) Recombinant viruses containing the mutations selected by invention compounds were also evaluated for their susceptibility to AZT, as shown in Table 8.

In a further experiment the test system is HIV-1LAI M164I/L214F. Nature of the experiment: p24 reduction assay in MT-2 cells, M164I/L214F. The format is cell-based. As for the experimental part:
as §1, §2, §3, §4
DNA sequencing of the RT gene (amino acid (AA) 1 to 350) from MB-PFA resistant virus identified three mutations: V75L, M164I and L214F. Recombinant viruses encoding the V75L, M164I and L214F mutations were constructed and tested for susceptibility to MB-PFA.
as §5

Another experiment has as its system HIV-1LAI W88G/L214F. Briefly: p24 reduction assay in MT-2 cells, W88G/L214F. The class given is cell-based. As for the experimental part:
as §1, §2, §3, §4
EB-PFA resistant virus was selected a second time after 15 passages. This virus also contained the mutations W88G and L214F.
as §5

The test system of experiment [1] is HIV-1 G2-3g (molecularly cloned isolate co-resistant to AZT and 3TC). Briefly: p24 reduction assay in MT-2 cells, G2-3g. The format is cell-based. The settings on record: for EC50: G2-3g; for Fold-resistance: G2-3g relative to wild type virus. The protocol:
as §1, §2
The multi-drug resistant HIV-1 strains, 11163p1 and 11588p1, are human clinical isolates having the RT mutations indicated. HIV-1 strains treated with the lipid analogs of the present invention include wild type, e.g., xxLAI, and the like, single mutation, e.g., xxLAI MI 84V (resistant to 3TC), xxLAI L74V (resistant to ddI and ddC), xxLAI K65R (resistant to ddI, ddC, DAPD, DXG, tenofovir, and adefovir), xxLAI T215Y (resistant to AZT), and the like, double mutations, e.g., xxLAI M41 L/T215Y (resistant to AZT), xxLAI MI 84V/T215Y (resistant to 3TC and AZT), and the like, and multiple mutations, e.g., xxLAI 4XAZT ((D67N, K70R, T215Y, K219Q) resistant to AZT)), xxLAI 4XAZT/M184V ((D67N, K70R, M 184V, T215Y, K219Q) resistant to AZT and 3TC), xxLAI M5456-12 (AZT+NNRTI resistant: D67N, K70R, K103N, T215Y), xxLAI G2-3g (AZT/3TC co-resistant: M41L, D67N, M184V, H208Y, L210W, R211K, L214F, T215Y, 1293V, E297A), 11163 (multinucleoside resistant virsus: M41L, A62V, V751, F77L, K103N, F116Y, Q151M, Y181C, M184V), 11588 (multinucleoside resistant virsus: A62V, K65R, K70R, V751, F77L, F116Y, Q151M, M184V, K219Q), and the like.

The test system of experiment [2] is multidrug-resistant HIV-1 clinical isolate 11163p1. Nature of the experiment: p24 reduction assay in MT-2 cells, 11163p1. The format is cell-based. As for the experimental part:
as §1
as §2, with “[…],” for “was determined by inoculating MT-2 cells with HIV-1LAI at a multiplicity of infection (MOI) of 0.01 TCID50/cell,”
The multi-drug resistant HIV-1 strains, 11163p1 and 11588p1, are human clinical isolates having the RT mutations indicated. […]

Experiment [3] has as its system K (multinucleoside resistant recombinant virus V75I, F77L, F116Y, Q151M). Nature of the experiment: p24 reduction assay in MT-2 cells, virus K. The format is cell-based, HIV-1. The following applies: Table 4; for EC50: virus K, mean ± SD; for Fold-resistance: virus K relative to wild type virus. As for the experimental part:
as §1, §2
The MNR panel consisted of a virus containing the mutations V75I, F77L, F116Y and […], a virus containing the T69S[SA insert], and a clinical isolate carrying the classic MNR genotype (62V/751/77L/116Y/151M). Each of the PFA invention compounds retained potency against these viruses with fold resistance values of <2.

`Cc1cn([C@H]2C[C@H](N=[N+]=[N-])[C@@H](CO)O2)c(=O)[nH]c1=O` [AZT, 3′-Azido-3′-deoxythymidine]: the EC50 worked out at 17 ± 7 nM with HIV-1LAI S117T (Human immunodeficiency virus 1, MT2, Table 8, S117T, read-out: AZT EC50); 8 ± 3 nM in the experiment on HIV-1LAI M164I/L214F (Human immunodeficiency virus 1, MT2, Table 8, M164I/L214F, read-out: AZT EC50); 15 ± 15 nM with HIV-1LAI W88G/L214F (Human immunodeficiency virus 1, MT2, Table 8, W88G/L214F, read-out: AZT EC50). Moreover, the Fold resistance is reported as 0.8 in the experiment on HIV-1LAI S117T (Table 8, S117T relative to wild type virus); 0.4 in the experiment on HIV-1LAI M164I/L214F (Table 8, M164I/L214F relative to wild type virus); 0.7 in the experiment with HIV-1LAI W88G/L214F (Table 8, W88G/L214F relative to wild type virus).
For `CCCCCCCCCCCCCCCCCCOC[C@H](COP(=O)(O)C(=O)O)OCC` [EB-PFA, 1-O-octadecyl-2-O-ethyl-sn-glycero-3-PFA], the EC50 amounted to 320 nM in experiment [1] (Table 1, MOI 0.01); 300 ± 40 nM in experiment [1] (Table 5, mean ± SD); 1230 nM in experiment [2] (Table 2, MOI 0.05); 900 ± 700 nM in experiment [3]; 9100 nM in the experiment with HIV-1LAI W88G/L214F (Example 6, recombinant virus W88G plus L214F, read-out: EC50). In addition, in experiment [1] (Table 5), the Fold-resistance entry is listed as “(0.5)”. Moreover, in the experiment with HIV-1LAI W88G/L214F (Example 6, recombinant virus W88G plus L214F), the Fold resistance turned out to be 15.5 fold.
Take `CCCCCCCCCCCCCCCCCCOC[C@@H](O)COP(=O)(O)C(=O)O` [B-PFA, 1-O-octadecyl-sn-glycero-3-PFA]: the EC50 in experiment [1] (Table 1, MOI 0.01) is 1470 nM; in experiment [1] (Table 5, mean ± SD), 1670 ± 950 nM; in experiment [2] (Table 2, MOI 0.05) it was 3480 nM; in experiment [3] it was 4200 nM. Also, the Fold-resistance result in experiment [1] (Table 5) is “(0.9)”; in experiment [3], “(1.6)”.
For `O=C(O)P(=O)(O)O` [PFA, phosphonoformate, reference compound], the Fold resistance in the experiment on HIV-1LAI S117T ({}) was determined as 4.7 fold. In addition, the EC50 in experiment [1] (Human immunodeficiency virus 1, MT2, Table 1, MOI 0.01) was 7600 nM; in experiment [1] (Human immunodeficiency virus 1, MT2, Table 5, mean ± SD), 8850 ± 3490 nM; in experiment [2] (Human immunodeficiency virus 1, MT2, Table 2, MOI 0.05) it was 24400 nM; in experiment [3] (Human immunodeficiency virus 1, MT2), 21400 ± 15600 nM. Further, the Fold-resistance result in experiment [1] (Table 5) is “(0.5)”; in experiment [3], “(0.7)”.
Take `CCCCCCCCCCCCCCCCCCOC[C@H](COP(=O)(O)C(=O)O)OC` [MB-PFA, 1-O-octadecyl-2-O-methyl-sn-glycero-3-PFA]: the EC50 in experiment [1] (Table 1, MOI 0.01) is 260 nM; in experiment [1] (Table 5, mean ± SD), 400 ± 260 nM; in the experiment with HIV-1LAI M164I/L214F (Example 6, recombinant virus with M164I and L214F, read-out: EC50), 8100 nM; in experiment [3], 2000 ± 600 nM. The results for the Fold-resistance result in experiment [1] (Table 5) and in experiment [3] were “(0.8)” and “(0.87)”, respectively. Besides, the Fold resistance in the experiment on HIV-1LAI M164I/L214F (Example 6, recombinant virus with M164I and L214F) is listed as 9.3 fold.
